Experimental findings from patent US7772271B2 (priority 2004, dated 2010) are described below.

The melting point is the temperature of the solid-liquid transition.

Structures are written as SMILES.

`C[C@H](NS(=O)(=O)Nc1ccc(-c2c(C#N)c3ccc(Oc4ncccc4Cl)cc3n2C2CCC2)cc1)C1CC1` [Compound 3017] showed a melting point of 120 to 125 °C.
The value for `COCCOc1ccc2c(C#N)c(-c3ccc(C(=O)NCc4ccc(F)cc4)cc3)n(C3CCC3)c2c1` [Compound 3134] was 154 to 160 °C; that for `COCCOc1ccc2c(C#N)c(-c3ccc(NC(=O)OC(C)c4ccc(F)cc4)cc3)n(C3CC3)c2c1` (stereo not drawn) [Compound 1439] was 74 to 76 °C.
The value for `CC(OC(=O)Nc1ccc(-c2c(C#N)c3ccc(OC4CCOCC4)cc3n2C2CC2)cc1)C(C)(C)C` (stereo not drawn) [Compound 2648] was 203 to 205 °C; that for `COCCOc1ccc2c(C#N)c(-c3ccc(NC(=O)OC(C)C4CC4)cc3)n(C3CCC3)c2c1` (stereo not drawn) [compound 1423, [4-(3-cyano-1-cyclobutyl-6-(2-methoxyethoxy)-1H-indol-2-yl)-phenyl]-carbamic acid 1-cyclopropyl-ethyl ester] was 192 to 193 °C; that for `CCC(OC(=O)Nc1ccc(-c2c(C#N)c3ccc(OC4CCOC4)cc3n2C2CCC2)cc1)C(C)C` (stereo not drawn) [Compound 1458] was 183 to 184 °C.
The figure for `C[C@@H](OC(=O)Nc1ccc(-c2c(C#N)c3ccc(OC4CCS(=O)(=O)CC4)cc3n2C2CCCC2)cc1)C1CC1` [Compound 3245] is 243 to 250 °C.
Take `CCOC(=O)Nc1ccc(-c2c(C#N)c3ccc(OCCOC)cc3n2C2CCC2)cc1` [compound 1397, {4-[3-cyano-1-cyclobutyl-6-(2-methoxy-ethoxy)-1H-indole-2-yl]-phenyl}-carbamic acid ethyl ester]: the melting point fell in the range of 170 to 171 °C.
The value for `CCCNC(=O)Nc1ccc(-c2c(C#N)c3ccc(O[Si](C)(C)C(C)(C)C)cc3n2CC)cc1` [Compound 1387] was 65 to 70 °C; that for `COCCOc1ccc2c(C#N)c(-c3ccc(C(=O)NCCN4CCOCC4)cc3)n(C3CCC3)c2c1` [Compound 2844] was 169 to 170 °C.
The value for `N#Cc1c(-c2ccc(NC(=S)NC3CCCC3)cc2)n(C2CCC2)c2cc(OC3CCOCC3)ccc12` [Compound 3157] was 137 to 138 °C; that for `C[C@@H](OC(=O)Nc1ccc(-c2c(C#N)c3cc(OCC4COCO4)ccc3n2C2CCC2)cc1)C(F)(F)F` (stereo partly drawn) [Compound 2799] was 162 to 169 °C.
The figure for `CC(OC(=O)Nc1ccc(-c2c(C#N)c3ccc(OC4COCOC4)cc3n2C2CCC2)cc1)C(C)(C)C` (stereo not drawn) [Compound 2861] is 221 to 232 °C (dec.); for `CCCS(=O)(=O)Nc1ccc(-c2c(C#N)c3ccc(Oc4cccnc4Cl)cc3n2C2CCC2)cc1` [Compound 2945] it is 173 to 175 °C.
With `N#Cc1c(-c2ccc(OC(=O)NC3CCCC3)cc2)n(CC2CC2)c2cc(OC3CCOCC3)ccc12` [Compound 2784], the melting point lay within 169 to 171 °C.
Turning to `C[C@@H](OC(=O)Nc1ccc(-c2c(C#N)c3ccc(OCCCS(C)(=O)=O)cc3n2C2CCC2)cc1)C(F)(F)F` [Compound 2958], the melting point lay within 206 to 208 °C.
The figure for `CCCS(=O)(=O)Nc1ccc(-c2c(C#N)c3cc(C(=O)N(CC)CC)ccc3n2C2CCC2)cc1` [Compound 3095] is 133 to 134 °C; for `COCCN(C)C(=O)c1ccc2c(C#N)c(-c3ccc(NC(=O)OC(C)C)cc3)n(C3CCC3)c2c1` [Compound 2659] it is 102 to 105 °C; for `CC(C)OC(=O)Nc1ccc(-c2c(C#N)c3ccc(OC4CCOC4)cc3n2C2CC2)cc1` (stereo not drawn) [Compound 1449] it is 180 to 181 °C.
The value for `C[C@@H](OC(=O)Nc1ccc(-c2c(C#N)c3ccc(OCCCS(C)(=O)=O)cc3n2C2CCC2)cc1)C1CC1` [Compound 2694] was 155 to 160 °C; that for `CCn1c(-c2ccc(NC(=O)N3CCCC3)cc2)c(C#N)c2ccc(OCCOC)cc21` [Compound 1381] was 151 to 154 °C; that for `C[C@@H](OC(=O)Nc1ccc(-c2c(C#N)c3ccc(N4CCOCC4)cc3n2CC2CC2)cc1)C1CC1` [Compound 2933] was 167 to 173 °C.
Compound `CCn1c(-c2ccc(NC(=O)OC(C)C)cc2)c(C#N)c2ccc(OCCOC)cc21` [Compound 1406] returned a melting point of 141 to 144 °C.
The figure for `CCOc1ccc2c(C#N)c(-c3ccc(S(=O)(=O)N4CCCCC4)cc3)n(C3CCC3)c2c1` [Compound 2661] is 195 to 202 °C; for `COc1ccnc(Oc2ccc3c(C#N)c(-c4ccc(NC(=O)NC(C)C)cc4)n(C4CCC4)c3c2)n1` [Compound 2750] it is 221 to 225 °C.
`CCN(CC)C(=O)Nc1ccc(-c2c(C#N)c3ccc(OC)cc3n2CC)cc1` [Compound 1376] came in with a melting point of 165 to 167 °C.
Compound `N#Cc1c(-c2ccc(NC(=O)OC(c3ccccc3)C(F)(F)F)cc2)n(C2CCC2)c2cc(OCCCCn3cncn3)ccc12` (stereo not drawn) [Compound 2645] returned a melting point of 118 to 120 °C.
The figure for `C[C@@H](OC(=O)Nc1ccc(-c2c(C#N)c3ccc(-c4cccc(Cl)n4)cc3n2C2CCC2)cc1)C1CC1` [Compound 3000] is 208 to 210 °C; for `CCc1cnc(Oc2ccc3c(C#N)c(-c4ccc(NC(=O)O[C@H](C)C5CC5)cc4Cl)n(C4CCC4)c3c2)nc1` [Compound 3060] it is 205 to 212 °C.
The value for `CC(C)NC(=O)Nc1ccc(-c2c(C#N)c3ccc(OCC(O)Cn4ccnc4)cc3n2C2CCC2)cc1` (stereo not drawn) [Compound 1421] was 138 to 140 °C; that for `C[C@@H](OC(=O)Nc1ccc(-c2c(C#N)c3ccc(OC4CCS(=O)(=O)CC4)cc3n2C2CCC2)cc1)C(F)(F)F` [Compound 3187] was 243 to 249 °C.
The value for `CC(C)CS(=O)(=O)Nc1ccc(-c2c(C#N)c3ccc(C(=O)N4CCOCC4)cc3n2C2CCC2)cc1` [Compound 2901] was 210 to 212 °C; that for `CCn1c(-c2ccc(N3CCCS3(=O)=O)cc2)c(C#N)c2ccc(N3CCN(S(=O)(=O)C4CC4)CC3)cc21` [Compound 1357] was 278 to 280 °C; that for `N#Cc1c(-c2ccc(NCC3CCCCC3)cc2)n(C2CCC2)c2cc(OCCF)ccc12` [Compound 3241] was 169 to 173 °C.
Take `N#Cc1c(-c2ccc(N3CCCS3(=O)=O)cc2)n(CC2CC2)c2cc(N3CCOCC3)ccc12` [Compound 2921]: the melting point lay in the range of 241 to 245 °C.
The figure for `CC(C)OC(=O)Nc1ccc(-c2c(C#N)c3cc(OCCn4ccnc4)ccc3n2C2CCC2)cc1` [Compound 2631] is 185 to 188 °C.
The value for `CCS(=O)(=O)Nc1ccc(-c2c(C#N)c3ccc(OC4CCOCC4)cc3n2C2CC2)cc1` [Compound 2912] was 212 to 214 °C; that for `CCCS(=O)(=O)Nc1ccc(-c2c(C#N)c3ccc(Oc4nccnc4C)cc3n2C2CCC2)cc1` [Compound 2931] was 227 to 230 °C; that for `CC(C)NC(=O)Nc1ccc(-c2c(C#N)c3ccc(N4CCOCC4)cc3n2C2CCC2)cc1` [Compound 2862] was 234 to 235 °C.
`CCc1cnc(Oc2ccc3c(C#N)c(-c4ccc(NC(=O)O[C@H](C)C5CC5)cc4)n(C4CCC4)c3c2)nc1` [Compound 2923] gave a melting point of 158 to 160 °C.
The value for `Cc1cc(-c2c(C#N)c3ccc(Oc4nccnc4C#N)cc3n2C2CCC2)ccc1NS(=O)(=O)CC(C)C` [Compound 3289] was 177 to 178 °C; that for `CC(C)n1c(-c2ccc(NC(=O)O[C@H](C)C(F)(F)F)cc2)c(C#N)c2ccc(N3CCOCC3)cc21` [Compound 2952] was 148 to 150 °C.
The value for `CC(C)NC(=S)Nc1ccc(-c2c(C#N)c3ccc(OC4CCOCC4)cc3n2C2CCC2)cc1` [Compound 3158] was 129 to 130 °C; that for `CC(OC(=O)Nc1ccc(-c2c(C#N)c3ccc(OC4CCOCC4)cc3n2C2CC2)cc1)C(F)(F)F` (stereo not drawn) [Compound 2649] was 207 to 209 °C; that for `Cc1nccc(Oc2ccc3c(C#N)c(-c4ccc(NC(=O)O[C@H](C)C5CC5)cc4)n(C4CC4)c3c2)n1` [Compound 2715] was 123 to 125 °C.
The figure for `C[C@@H](OC(=O)Nc1ccc(-c2c(C#N)c3ccc(OCS(C)(=O)=O)cc3n2C2CCC2)cc1)C1CC1` [compound 2988, (R)-[4-(3-cyano-1-cyclobutyl-6-methanesulfonylmethoxy-1H-indol-2-yl)-phenyl]-carbamic acid 1-cyclopropyl-ethyl ester] is 218 to 223 °C; for `COCCOc1ccc2c(C#N)c(-c3ccc(C(=O)N4CCOCC4)cc3)n(C3CCC3)c2c1` [Compound 2754] it is 148 to 150 °C.
For `COc1ccc(Nc2ccc(-c3c(C#N)c4ccc(OC5CCOCC5)cc4n3C3CCC3)cc2)cc1C` [Compound 3159], the melting point was 195 to 201 °C.
The value for `CCn1c(-c2ccc(N3CCCS3(=O)=O)cc2)c(C#N)c2ccc(OC3CCOCC3)cc21` [Compound 2940] was 222 to 227 °C.
In turn, `C[C@@H](OC(=O)Nc1ccc(-c2c(C#N)c3ccc(-c4ccnn4C)cc3n2C2CCC2)cc1)C1CC1` [Compound 3046] returned a melting point of 195 to 197 °C.
The value for `CC(C)OC(=O)Nc1ccc(-c2c(C#N)c3ccc(N4CCCCC4)cc3n2C2CCC2)cc1` [Compound 2967] was 208 to 213 °C; that for `CC(C)(C)OC(=O)Nc1ccc(-c2c(C#N)c3ccc(N4CCSCC4)cc3n2C2CCC2)cc1` [Compound 2777] was 191 °C (dec.).
As for `COCCOc1ccc2c(C#N)c(-c3ccc(NC(=O)OC(C)C(C)(C)C)cc3)n(C(C)C)c2c1` (stereo not drawn) [Compound 2670], the melting point fell in the range of 204 to 205 °C.
The value for `CC1CCc2cc(-c3c(C#N)c4ccc(Oc5ncccn5)cc4n3C3CCC3)ccc2NC1=O` (stereo not drawn) [Compound 3222] was 233 to 235 °C.
The value for `CCOc1ccc2c(C#N)c(-c3ccc(NC(=O)OCc4cnccn4)cc3)n(C3CCC3)c2c1` [Compound 1426] was 159 to 164 °C.
The value for `C[C@@H](OC(=O)Nc1ccc(-c2c(C#N)c3ccc(N4CCCCC4)cc3n2CC2CC2)cc1)C1CC1` [Compound 2907] was 127 to 132 °C.
Take `CCn1c(-c2ccc(NC(=O)O[C@H](C)C3CC3)cc2)c(C#N)c2ccc(OC3CCS(=O)(=O)CC3)cc21` [Compound 3231]: the melting point lay in the range of 189 to 196 °C.
